Laboratory results reported in patent publication US20240196898A1, “INSANITARY INSECT PEST CONTROL METHOD USING CONDENSED HETEROCYCLIC COMPOUND” (SUMITOMO CHEMICAL COMPANY, LIMITED, priority 2021, published 2024).

Columns and labels:
Assay type in all cases: in vivo
[1] = tested on: African malaria mosquitos (Anopheles gambiae); assay: Test Example 2: vial inner-wall contact test, 50 minutes exposure, female adult African malaria mosquitos; details: Anopheles gambiae female adults, after 4 days, read-out: Moribund and mortal rates (%) after 4 days; for mortality at 5 mg/m2: 5 mg/m^2 treated per area; for mortality at 10 mg/m2: 10 mg/m^2 treated per area; for mortality at 300 mg/m2: 300 mg/m^2 treated per area
Experimental: In a 250 mL volume vial, 1.0 mL of an acetone solution (containing 0.09% of a surfactant added therein) which contains prescribed amount of the present compound A, the present compound B, comparative compound 1, comparative compound 2, comparative compound 3, or comparative compound 4 was added dropwise and the inner wall of the vial was coated homogeneously with the chemicals and then air-dried. Thereafter, female adult African malaria mosquitos (Anopheles gambiae) were released and the vial was sealed with a lid, followed by exposure for 50 minutes. 50 Minutes after exposure, African malaria mosquitos were transferred to a new plastic cup, followed by feeding sugar water. After 4 days, the number of dead and moribund individuals of African malaria mosquitos was examined, and moribund and mortal rates (%) were determined by the equation 2 below. Dead individuals are completely immobile individuals, and moribund individuals are individuals who are flightless and non-ambulatory.
Moribund and mortal rates (%)={(number of dead individuals+number of moribund individuals)/number of tested individuals}×100 (Equation 2)
The amount to be treated per area was set at 300, 10 and 5 mg/m^2.

[2] = tested on: Formosan subterranean worker termites (Coptotermes formosanus); assay: Test Example 4: treated filter paper contact test, 1 hour exposure, Formosan subterranean worker termites; details: Coptotermes formosanus workers, after 3 days, read-out: Moribund and mortal rates (%) after 3 days; for mortality at 300 mg/m2: 300 mg/m^2 treated per area; for mortality at 500 mg/m2: 500 mg/m^2 treated per area; for mortality at 1000 mg/m2: 1,000 mg/m^2 treated per area
Experimental: 0.6 mL of an acetone solution containing prescribed amount of the present compound A, the present compound B, comparative compound 1, comparative compound 2, comparative compound 3, or comparative compound 4 was added dropwise on a filter paper having a diameter of 82 mm, followed by air drying. The filter paper was attached to a plastic petri dish having a diameter of 90 mm without gaps by adding dropwise 1.4 mL of water, and then Formosan subterranean worker termites (Coptotermes formosanus) were released and the vial was sealed with a lid, followed by exposure for 1 hours. After exposure for 1 hour, Formosan subterranean worker termites were transferred to a new plastic cup with bottom lined with the filter paper, followed by feeding water. After 3 days, the number of dead and moribund individuals of Formosan subterranean worker termites was examined, and moribund and mortal rates (%) were determined by the equation 4 below. Dead individuals are completely immobile individuals, and moribund individuals are individuals who are flightless and non-ambulatory.
Moribund and mortal rates (%)={(number of dead individuals+number of moribund individuals)/number of tested individuals}×100 (Equation 4)
The amount to be treated per area was set at 1,000, 500 and 300 mg/m^2.

[3] = tested on: German cockroaches (Blattella germanica); assay: Test Example 1: vial inner-wall residual contact test, German cockroaches; details: German cockroach, read-out: Moribund and mortal rates (%); for mortality at 5 mg/m2: 5 mg/m^2 treated per area; for mortality at 50 mg/m2: 50 mg/m^2 treated per area; for mortality at 150 mg/m2: 150 mg/m^2 treated per area; for mortality at 300 mg/m2: 300 mg/m^2 treated per area; for mortality at 1000 mg/m2: 1,000 mg/m^2 treated per area
Experimental: In a 20 mL volume vial, 0.2 mL of an acetone solution (containing 0.09% of a surfactant added therein) which contains prescribed amount of the present compound A, the present compound B, comparative compound 1, comparative compound 2, comparative compound 3, or comparative compound 4 was added dropwise and the inner wall of the vial was coated homogeneously with the chemicals and then air-dried. Thereafter, five German cockroaches (Blattella germanica) were released and the vial was sealed with a lid. […] Dead individuals are completely immobile individuals, and moribund individuals are individuals who cannot get up when turned on their backs, and are non-ambulatory.
Moribund and mortal rates (%)={(number of dead individuals+number of moribund individuals)/number of tested individuals}×100 (Equation 1)
The amount to be treated per area was set at 1000, 300, 150, 50 and 5 mg/m^2.

[4] = tested on: little red worker ants (Monomorium pharaonis); assay: Test Example 3: vial inner-wall contact test, 1 hour exposure, little red worker ants; details: Monomorium pharaonis workers, after 1 day, read-out: Moribund and mortal rates (%) after 1 day; for mortality at 5 mg/m2: 5 mg/m^2 treated per area; for mortality at 100 mg/m2: 100 mg/m^2 treated per area; for mortality at 300 mg/m2: 300 mg/m^2 treated per area
Experimental: In a 20 mL volume vial, 0.2 mL of an acetone solution (containing 0.09% of a surfactant added therein) which contains prescribed amount of the present compound A, the present compound B, comparative compound 1, comparative compound 2, comparative compound 3, or comparative compound 4 was added dropwise and the inner wall of the vial was coated homogeneously with the chemicals and then air-dried. Thereafter, little red worker ants (Monomorium pharaonis) were released and the vial was sealed with a lid. After 1 hour, little red worker ants in the vial were transferred to a new plastic cup, followed by feeding […] sucrose water. After 1 day, the number of dead and moribund individuals was examined, and moribund and mortal rates (%) were determined by the equation 3 below. Dead individuals are completely immobile individuals, and moribund individuals are individuals who cannot get up when turned on their backs, and are non-ambulatory.
Moribund and mortal rates (%)={(number of dead individuals+number of moribund individuals)/number of tested individuals}×100 (Equation 3)
The amount to be treated per area was set at 300, 100 and 5 mg/m^2.

CCS(=O)(=O)c1cc(C(F)(F)F)cnc1-c1nc2cc([S+]([O-])C(F)(F)F)ccc2o1 (stereo not drawn) [Comparative compound 1]
mortality at 5 mg/m2 [1]: 3% | mortality at 10 mg/m2 [1]: 43% | mortality at 300 mg/m2 [1]: 53% | mortality at 300 mg/m2 [2]: 10% | mortality at 500 mg/m2 [2]: 30% | mortality at 1000 mg/m2 [2]: 100% | mortality at 5 mg/m2 [3]: 10% | mortality at 50 mg/m2 [3]: 30% | mortality at 150 mg/m2 [3]: 50% | mortality at 300 mg/m2 [3]: 50% | mortality at 1000 mg/m2 [3]: 100% | mortality at 5 mg/m2 [4]: 30% | mortality at 100 mg/m2 [4]: 40% | mortality at 300 mg/m2 [4]: 100%

CCS(=O)(=O)c1cc(C(F)(F)F)cnc1-c1nc2cc(S(=O)(=O)C(F)(F)F)ccc2o1 [Comparative compound 2]
mortality at 5 mg/m2 [1]: 8% | mortality at 10 mg/m2 [1]: 13% | mortality at 300 mg/m2 [1]: 15% | mortality at 300 mg/m2 [2]: 10% | mortality at 500 mg/m2 [2]: 20% | mortality at 1000 mg/m2 [2]: 100% | mortality at 5 mg/m2 [3]: 10% | mortality at 50 mg/m2 [3]: 10% | mortality at 150 mg/m2 [3]: 20% | mortality at 300 mg/m2 [3]: 50% | mortality at 1000 mg/m2 [3]: 100% | mortality at 5 mg/m2 [4]: 20% | mortality at 100 mg/m2 [4]: 50% | mortality at 300 mg/m2 [4]: 100%

CCS(=O)(=O)c1cc(C)cnc1-c1nc2cc([S+]([O-])C(F)(F)F)ccc2o1 (stereo not drawn) [Comparative compound 3]
mortality at 5 mg/m2 [1]: 6% | mortality at 10 mg/m2 [1]: 7% | mortality at 300 mg/m2 [1]: 35% | mortality at 300 mg/m2 [2]: 10% | mortality at 500 mg/m2 [2]: 10% | mortality at 1000 mg/m2 [2]: 100% | mortality at 5 mg/m2 [3]: 10% | mortality at 50 mg/m2 [3]: 30% | mortality at 150 mg/m2 [3]: 30% | mortality at 300 mg/m2 [3]: 40% | mortality at 1000 mg/m2 [3]: 100% | mortality at 5 mg/m2 [4]: 10% | mortality at 100 mg/m2 [4]: 30% | mortality at 300 mg/m2 [4]: 100%

CCS(=O)(=O)c1cc(C)cnc1-c1nc2cc(S(=O)(=O)C(F)(F)F)ccc2o1 [Comparative compound 4]
mortality at 5 mg/m2 [1]: 8% | mortality at 10 mg/m2 [1]: 15% | mortality at 300 mg/m2 [1]: 26% | mortality at 300 mg/m2 [2]: 10% | mortality at 500 mg/m2 [2]: 10% | mortality at 1000 mg/m2 [2]: 100% | mortality at 5 mg/m2 [3]: 10% | mortality at 50 mg/m2 [3]: 10% | mortality at 150 mg/m2 [3]: 20% | mortality at 300 mg/m2 [3]: 30% | mortality at 1000 mg/m2 [3]: 100% | mortality at 5 mg/m2 [4]: 10% | mortality at 100 mg/m2 [4]: 20% | mortality at 300 mg/m2 [4]: 100%

CCS(=O)(=O)c1cc(C2CC2)cnc1-c1nc2cc([S+]([O-])C(F)(F)F)ccc2o1 (stereo not drawn) [Present compound A]
mortality at 5 mg/m2 [1]: 100% | mortality at 10 mg/m2 [1]: 100% | mortality at 300 mg/m2 [1]: 100% | mortality at 300 mg/m2 [2]: 100% | mortality at 500 mg/m2 [2]: 100% | mortality at 1000 mg/m2 [2]: 100% | mortality at 5 mg/m2 [3]: 100% | mortality at 50 mg/m2 [3]: 100% | mortality at 150 mg/m2 [3]: 100% | mortality at 300 mg/m2 [3]: 100% | mortality at 1000 mg/m2 [3]: 100% | mortality at 5 mg/m2 [4]: 100% | mortality at 100 mg/m2 [4]: 100% | mortality at 300 mg/m2 [4]: 100%

CCS(=O)(=O)c1cc(C2CC2)cnc1-c1nc2cc(S(=O)(=O)C(F)(F)F)ccc2o1 [Present compound B]
mortality at 5 mg/m2 [1]: 100% | mortality at 10 mg/m2 [1]: 100% | mortality at 300 mg/m2 [1]: 100% | mortality at 300 mg/m2 [2]: 100% | mortality at 500 mg/m2 [2]: 100% | mortality at 1000 mg/m2 [2]: 100% | mortality at 5 mg/m2 [3]: 100% | mortality at 50 mg/m2 [3]: 100% | mortality at 150 mg/m2 [3]: 100% | mortality at 300 mg/m2 [3]: 100% | mortality at 1000 mg/m2 [3]: 100% | mortality at 5 mg/m2 [4]: 100% | mortality at 100 mg/m2 [4]: 100% | mortality at 300 mg/m2 [4]: 100%
